Measurements from patent US20120053184A1, “SALTS OF 3-(1H-IND0L-3-YL)-4-[2-(4-METHYL-PIPERAZIN-I-YL)-QUINAZOLIN-4-YL]-PYRROLE-2, 5-DI ONE” (priority 2007, published 2012).

Key:
[1] = solubility in aqueous media; format: physicochemical
Excerpt: Therefore it is not straightforward or easy to formulate it into pharmaceutical compositions, e.g. for oral administration.

[2] = stability in the solid state (heat, heat/humidity, light); format: physicochemical; settings: after one week at 80° C. in a close container, or at 80° C./75% r.h. in open container, or upon exposure to light (1200 kLux, 300-800 nm)
Excerpt: Criteria for selecting the salts of the invention include i) dissolution in water, with measurement of degradation products, and decoloration, ii) stability against heat in solid state, iii) exposure to light (e.g. Xenon light), iv) corosivity to steel.

CN1CCN(c2nc(C3=C(c4c[nH]c5ccccc45)C(=O)NC3=O)c3ccccc3n2)CC1 [free base, 3-(1.H.-indol-3-yl)-4-[2-(4-methyl-piperazin-1-yl)-quinazolin-4-yl]-pyrrole-2,5-dione]
solubility in aqueous media [1]: relatively low solubility

CN1CCN(c2nc(C3=C(c4c[nH]c5ccccc45)C(=O)NC3=O)c3ccccc3n2)CC1.O=C(O)/C=C\C(=O)O [maleate, Maleate Salt of 3-(1.H.-indol-3-yl)-4-[2-(4-methyl-piperazin-1-yl)-quinazolin-4-yl]-pyrrole-2,5-dione]
stability in the solid state [2]: very good stability

CN1CCN(c2nc(C3=C(c4c[nH]c5ccccc45)C(=O)NC3=O)c3ccccc3n2)CC1.CS(=O)(=O)O [mesylate salt, Mesylate Salt of 3-(1.H.-indol-3-yl)-4-[2-(4-methyl-piperazin-1-yl)-quinazolin-4-yl]-pyrrole-2,5-dione]
stability in the solid state [2]: very good stability
